From patent US11707462B2, “Checkpoint kinase 1 (CHK1) inhibitors and uses thereof” (Boundless Bio, Inc., priority 2021, dated 2023) come the findings set out here.

The target of assay [1] is T1, Full-length human Chk1 protein (Homo sapiens, UniProt O14757).
T1 construct: purchased Carna Biosciences, Inc. 02-117
T1 sequence (O14757 1-476): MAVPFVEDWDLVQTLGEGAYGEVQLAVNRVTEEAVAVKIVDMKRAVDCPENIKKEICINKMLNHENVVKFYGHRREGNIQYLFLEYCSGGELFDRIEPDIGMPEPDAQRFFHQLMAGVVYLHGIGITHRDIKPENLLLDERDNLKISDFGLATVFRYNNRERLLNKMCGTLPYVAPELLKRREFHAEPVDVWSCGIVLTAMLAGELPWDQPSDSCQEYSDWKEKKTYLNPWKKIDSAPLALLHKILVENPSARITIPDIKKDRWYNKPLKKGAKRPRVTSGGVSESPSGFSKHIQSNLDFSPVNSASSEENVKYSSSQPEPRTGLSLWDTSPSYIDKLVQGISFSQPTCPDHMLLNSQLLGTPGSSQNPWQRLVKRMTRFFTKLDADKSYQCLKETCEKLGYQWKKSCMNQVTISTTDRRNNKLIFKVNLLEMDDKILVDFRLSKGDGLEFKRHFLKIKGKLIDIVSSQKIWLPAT
Description: Kinase HTRF biochemical assay (HTRF KinEASE), Chk1 enzyme activity. Conditions: full-length human Chk1, ATP 1 mM, 60 minutes at room temperature. On the procedure:
Example A: Kinase HTRF Biochemical Assay
Chk1 enzyme activity was measured using an HTRF KinEASE assay (Cisbio, catalog no. 62ST1PEC). Full-length human Chk1 protein (GenBank accession number NP_001265.1) was obtained from Carna Biosciences, Inc. (Kobe, Japan, catalog no. 02-117). The enzyme reaction was carried out in assay buffer containing (final concentrations): Chk1 enzyme (0.012 ng/μL), MgCl2 (5 mM) and DTT (1 mM). To determine compound dose response, DMSO stock solutions were serially diluted in a 10-point concentration series in duplicate. Compound solution (50 nL) was added to 384-well assay plates (Greiner, catalog no. 784075). To each well containing compound solution was added assay buffer solution (5 μL). Plates were centrifuged at 1000 rpm for 1 minute, then incubated at room temperature for 10 minutes. The reaction was started by addition of substrate buffer (5 μL/well) containing (final concentrations): STK substrate 1-biotin (120 nM) and ATP (1 mM). Assay plates were centrifuged at 1000 rpm for 1 minute, then incubated at room temperature for 60 minutes. The reaction was stopped by addition of detection buffer (Cisbio, 10 μL) containing (final concentrations): STK antibody-cryptate (0.25 nM) and streptavidin-XL665 (7.5 nM). Plates were centrifuged at 1000 rpm for 1 minute, then incubated at 25° C. for 2 hours. HTRF signal was read on an EnVision multimode plate reader […] in HTRF mode. Data were fit to dose-response curves using XLfit (IDBS, Surrey, UK) or Prism (GraphPad Software, La Jolla, Calif., US) to calculate IC50 values for each compound tested.
Background: TR-FRET usually uses a lanthanide donor and a delayed reading to cut background.

Assay [2] concerns p-CHK1 (Ser345). The assay can be described thus: AlphaLISA SureFire Ultra p-CHK1 (Ser345) cellular assay in HT29 cells. To be noted: Homo sapiens, HT-29, 16 h at 37° C. Format: cell-based. On the procedure:
Example B: AlphaLisa Cellular Assay
Compound activity in cells was measured using an AlphaLISA® SureFire® Ultra™ p-CHK1 (Ser345) assay (Perkin Elmer, catalog no. ALSU-PCHK1-A10K). HT29 cells were cultured in McCoy 5A medium with 10% FBS and 1% penicillin-streptomycin and seeded to 96-well plates (Corning, catalog no. 3599). Compounds were serially diluted in DMSO over a 10-point dose range with 3-fold dilution and to each well containing cells was added compound solution. Plates were centrifuged at 1000 rpm for 30 seconds. Plates were incubated at 37° C. for 16 h. Supernatant was removed by flicking the plate against a paper towel. Wells were washed once with PBS solution. To each well was added freshly prepared lysis buffer and plates were agitated on a plate shaker at 400 rpm for 30 min. The 96-well cell plates were centrifuged at 1500 rpm for 1 minute. From each well was transferred 10 μL of the lysates to a 384-well Optiplate™ (Perkin Elmer, catalog no. 6007290). To each well was added Acceptor Mix (5 μL) and the plates were sealed and wrapped in foil. Plates were agitated on a plate shaker for 2 minutes, then incubated at room temperature for 1 h. To each well was added Donor Mix (5 μL) and the plates were sealed and wrapped in foil. Plates were agitated on a plate shaker for 2 minutes, then incubated at room temperature for 1 h. AlphaLisa signal was read on an EnVision multimode plate reader (Perkin Elmer). Data were fit to dose-response curves using XLfit (IDBS, Surrey, UK) or Prism (GraphPad Software, La Jolla, Calif., US) to calculate IC50 values for each compound tested.
For orientation: In Alpha technology, singlet oxygen from a donor bead excites a nearby acceptor bead.

By IC50 is commonly meant the concentration needed to halve the response being measured. Take `N#Cc1cnc(Nc2cc(-c3c(F)cccc3O[C@H]3C[C@H](N)C3)[nH]n2)cn1` [Example 1-13, 5-((5-(2-((1r,3r)-3-aminocyclobutoxy)-6-fluorophenyl)-1H-pyrazol-3-yl)amino)pyrazine-2-carbonitrile]: the half-inhibitory concentration (IC50) was 10 to 100 nM in assay [1] and 100 to 500 nM in assay [2].
For `COc1cc(F)cc(O[C@H]2C[C@H](N)C2)c1-c1cc(Nc2cnc(C#N)cn2)n[nH]1` [Example 1-14, 5-((5-(2-((1r,3r)-3-aminocyclobutoxy)-4-fluoro-6-methoxyphenyl)-1H-pyrazol-3-yl)amino)pyrazine-2-carbonitrile], the figures for the IC50 in assay [1] and in assay [2] were at most 10 nM and at most 50 nM, respectively.
For `CN[C@H]1C[C@H](Oc2cccc(OC)c2-c2cc(Nc3cnc(C#N)cn3)n[nH]2)C1` [Example 1-16, 5-((5-(2-methoxy-6-((1r,3r)-3-(methylamino)cyclobutoxy)phenyl)-1H-pyrazol-3-yl)amino)pyrazine-2-carbonitrile], in that order: 10 to 100 nM and at most 50 nM.
`CCOc1cccc(O[C@H]2CC[C@H](N)CC2)c1-c1cc(Nc2cnc(C#N)cn2)n[nH]1` [Example 1-17, 5-((5-(2-(((1r,4r)-4-aminocyclohexyl)oxy)-6-ethoxyphenyl)-1H-pyrazol-3-yl)amino)pyrazine-2-carbonitrile]: the IC50 in assay [1] was in the range of 10 to 100 nM; in assay [2] it was 500 to 1000 nM.
For `N#Cc1cnc(Nc2cc(-c3c(F)cccc3O[C@H]3CC[C@H](N)CC3)[nH]n2)cn1` [Example 1-19, 5-((5-(2-(((1r,4r)-4-aminocyclohexyl)oxy)-6-fluorophenyl)-1H-pyrazol-3-yl)amino)pyrazine-2-carbonitrile] the same measures were 10 to 100 nM and 100 to 500 nM.
For `COc1c(F)ccc(O[C@H]2CC[C@H](N)CC2)c1-c1cc(Nc2cnc(C#N)cn2)n[nH]1` [Example 1-20, 5-((5-(6-(((1r,4r)-4-aminocyclohexyl)oxy)-3-fluoro-2-methoxyphenyl)-1H-pyrazol-3-yl)amino)pyrazine-2-carbonitrile], in that order: 10 to 100 nM and 100 to 500 nM.
For `COc1cc(Cl)cc(O[C@H]2CC[C@H](N)CC2)c1-c1cc(Nc2cnc(C#N)cn2)n[nH]1` [Example 1-21, 5-((5-(2-(((1r,4r)-4-aminocyclohexyl)oxy)-4-chloro-6-methoxyphenyl)-1H-pyrazol-3-yl)amino)pyrazine-2-carbonitrile] the same measures were at most 10 nM and 50 to 100 nM.
On to `N#Cc1cnc(Nc2cc(-c3c(F)cccc3O[C@@H]3CC[C@H](N)C3)[nH]n2)cn1` [Example 1-22, 5-((5-(2-(((1R,3S)-3-aminocyclopentyl)oxy)-6-fluorophenyl)-1H-pyrazol-3-yl)amino)pyrazine-2-carbonitrile], for which the IC50 in assay [1] lay in the range of 10 to 100 nM; in assay [2], 100 to 500 nM.
`CCOc1cccc(O[C@@H]2CC[C@H](N)C2)c1-c1cc(Nc2cnc(C#N)cn2)n[nH]1` [Example 1-23, 5-((5-(2-(((1R,3S)-3-aminocyclopentyl)oxy)-6-ethoxyphenyl)-1H-pyrazol-3-yl)amino)pyazine-2-carbonitrile]: the IC50 lay within 10 to 100 nM in assay [1] and 100 to 500 nM in assay [2].
As to `COc1c(F)ccc(O[C@@H]2CC[C@H](N)C2)c1-c1cc(Nc2cnc(C#N)cn2)n[nH]1` [Example 1-26, 5-((5-(6-(((1R,3S)-3-aminocyclopentyl)oxy)-3-fluoro-2-methoxyphenyl)-1H-pyrazol-3-yl)amino)pyrazine-2-carbonitrile], the IC50 in assay [1] was in the range of 10 to 100 nM; in assay [2], 50 to 100 nM.
For the compound `COc1ccc(F)c(O[C@@H]2CC[C@H](N)C2)c1-c1cc(Nc2cnc(C#N)cn2)n[nH]1` [Example 1-27, 5-((5-(2-(((1R,3S)-3-aminocyclopentyl)oxy)-3-fluoro-6-methoxyphenyl)-1H-pyrazol-3-yl)amino)pyrazine-2-carbonitrile], the figures for the IC50 in assay [1] and in assay [2] were 10 to 100 nM and 100 to 500 nM, respectively.
